Measurements reported in ChEMBL document CHEMBL1201862, “PubChem BioAssay data set” (2004).
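Values below derive from 48-hour exposures of cells grown in 96-well plates, with endpoints linearly interpolated between the two concentrations bracketing the appropriate inhibition level. GI50 is the concentration that inhibits growth by half.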 Active and inactive are the calls of the source. Rule as the data show it: active = GI50 up to about 1.1 µM and inactive = higher.

Key:
Experiment in all cases: growth of human tumour cells (NCI), 48 h
786-0 = test system: 786-0
SW-620 = test system: SW-620
SK-MEL-28 = test system: SK-MEL-28
MCF7 = test system: MCF7
OVCAR-3 = test system: OVCAR-3
A549 = test system: A549
MOLT-4 = test system: MOLT-4
SF-539 = test system: SF-539
SK-OV-3 = test system: SK-OV-3
LOX IMVI = test system: LOX IMVI
UACC-257 = test system: UACC-257
HCC 2998 = test system: HCC 2998
SF-295 = test system: SF-295
BT-549 = test system: BT-549
HOP-92 = test system: HOP-92
NCI-H522 = test system: NCI-H522
OVCAR-8 = test system: OVCAR-8
U-251 = test system: U-251
SNB-19 = test system: SNB-19
TK-10 = test system: TK-10
SK-MEL-2 = test system: SK-MEL-2
DU-145 = test system: DU-145
MDA-MB-435 = test system: MDA-MB-435
M14 = test system: M14
HCT-116 = test system: HCT-116
HCT-15 = test system: HCT-15
OVCAR-4 = test system: OVCAR-4
COLO 205 = test system: COLO 205
T47D = test system: T47D
NCI-H226 = test system: NCI-H226
HOP-62 = test system: HOP-62
RXF 393 = test system: RXF 393
CAKI-1 = test system: CAKI-1
Malme-3M = test system: Malme-3M
Hs-578T = test system: Hs-578T
PC-3 = test system: PC-3
EKVX = test system: EKVX
KM12 = test system: KM12
SK-MEL-5 = test system: SK-MEL-5
UO-31 = test system: UO-31
SN12C = test system: SN12C
SF-268 = test system: SF-268
HT-29 = test system: HT-29
UACC-62 = test system: UACC-62
OVCAR-5 = test system: OVCAR-5
IGROV-1 = test system: IGROV-1
A498 = test system: A498
ACHN = test system: ACHN
SNB-75 = test system: SNB-75
MDA-MB-231 = test system: MDA-MB-231
NCI/ADR-RES = test system: NCI/ADR-RES
RPMI-8226 = test system: RPMI-8226
NCI-H23 = test system: NCI-H23
MDA-N = test system: MDA-N
CCRF-CEM = test system: CCRF-CEM
HL-60 = test system: HL-60
NCI-H460 = test system: NCI-H460
K562 = test system: K562

SMILES: Nc1nc(N)c2ncn(Cc3c(Cl)cccc3Cl)c2n1
- GI50 (786-0): > 100 µM (inactive)
- GI50 (SW-620): > 100 µM (inactive)
- GI50 (SK-MEL-28): > 100 µM (inactive)
- GI50 (MCF7): > 100 µM (inactive)
- GI50 (OVCAR-3): > 100 µM (inactive)
- GI50 (A549): > 100 µM (inactive)
- GI50 (MOLT-4): > 100 µM (inactive)
- GI50 (SF-539): > 100 µM (inactive)
- GI50 (SK-OV-3): > 100 µM (inactive)
- GI50 (LOX IMVI): > 100 µM (inactive)
- GI50 (UACC-257): > 100 µM (inactive)
- GI50 (HCC 2998): > 100 µM (inactive)
- GI50 (SF-295): > 100 µM (inactive)
- GI50 (BT-549): > 100 µM (inactive)
- GI50 (HOP-92): > 100 µM (inactive)
- GI50 (NCI-H522): > 100 µM (inactive)
- GI50 (OVCAR-8): > 100 µM (inactive)
- GI50 (U-251): > 100 µM (inactive)
- GI50 (SNB-19): > 100 µM (inactive)
- GI50 (TK-10): > 100 µM (inactive)
- GI50 (SK-MEL-2): > 100 µM (inactive)
- GI50 (DU-145): > 100 µM (inactive)
- GI50 (MDA-MB-435): > 100 µM (inactive)
- GI50 (M14): > 100 µM (inactive)
- GI50 (HCT-116): > 100 µM (inactive)
- GI50 (HCT-15): > 100 µM
- GI50 (OVCAR-4): > 100 µM (inactive)
- GI50 (COLO 205): > 100 µM (inactive)
- GI50 (T47D): > 100 µM (inactive)
- GI50 (NCI-H226): > 100 µM (inactive)
- GI50 (HOP-62): > 100 µM (inactive)
- GI50 (RXF 393): > 100 µM (inactive)
- GI50 (CAKI-1): > 100 µM (inactive)
- GI50 (Malme-3M): > 100 µM (inactive)
- GI50 (Hs-578T): > 100 µM (inactive)
- GI50 (PC-3): > 100 µM (inactive)
- GI50 (EKVX): 28.4 µM (inactive)
- GI50 (KM12): > 100 µM (inactive)
- GI50 (SK-MEL-5): > 100 µM (inactive)
- GI50 (UO-31): > 100 µM (inactive)
- GI50 (SN12C): > 100 µM (inactive)
- GI50 (SF-268): > 100 µM (inactive)
- GI50 (HT-29): > 100 µM (inactive)
- GI50 (UACC-62): > 100 µM (inactive)
- GI50 (OVCAR-5): > 100 µM (inactive)
- GI50 (IGROV-1): > 100 µM (inactive)
- GI50 (A498): > 100 µM (inactive)
- GI50 (ACHN): > 100 µM (inactive)
- GI50 (SNB-75): 1.6 µM (inactive)
- GI50 (MDA-MB-231): > 100 µM (inactive)
- GI50 (NCI/ADR-RES): 50.5 µM (inactive)
- GI50 (RPMI-8226): > 100 µM (inactive)
- GI50 (NCI-H23): > 100 µM (inactive)
- GI50 (MDA-N): > 100 µM (inactive)
- GI50 (CCRF-CEM): > 100 µM (inactive)

SMILES: O=S(=O)(SC1=NCCN1)c1ccc2ccccc2c1
- GI50 (HL-60): 16.3 µM (inactive)
- GI50 (786-0): 28.1 µM (inactive)
- GI50 (SW-620): 19.7 µM (inactive)
- GI50 (SK-MEL-28): 34.8 µM (inactive)
- GI50 (MCF7): 29.4 µM (inactive)
- GI50 (OVCAR-3): 27.5 µM (inactive)
- GI50 (A549): 26.8 µM (inactive)
- GI50 (MOLT-4): 24.8 µM (inactive)
- GI50 (SF-539): 23.8 µM (inactive)
- GI50 (SK-OV-3): 22.6 µM (inactive)
- GI50 (LOX IMVI): 31.4 µM (inactive)
- GI50 (UACC-257): 39.4 µM (inactive)
- GI50 (HCC 2998): 20.6 µM (inactive)
- GI50 (SF-295): 24.8 µM (inactive)
- GI50 (BT-549): 24.5 µM (inactive)
- GI50 (HOP-92): 51.1 µM (inactive)
- GI50 (NCI-H522): 17.4 µM (inactive)
- GI50 (OVCAR-8): 20.7 µM (inactive)
- GI50 (U-251): 23.8 µM (inactive)
- GI50 (SNB-19): 20.2 µM (inactive)
- GI50 (TK-10): 89.1 µM (inactive)
- GI50 (SK-MEL-2): 24.8 µM (inactive)
- GI50 (DU-145): 32 µM (inactive)
- GI50 (MDA-MB-435): 20.7 µM (inactive)
- GI50 (M14): 23.3 µM (inactive)
- GI50 (HCT-116): 22.5 µM (inactive)
- GI50 (HCT-15): 25.1 µM
- GI50 (OVCAR-4): 52.4 µM (inactive)
- GI50 (COLO 205): 18.7 µM (inactive)
- GI50 (T47D): 81.7 µM (inactive)
- GI50 (NCI-H226): 28.9 µM (inactive)
- GI50 (HOP-62): 23.3 µM (inactive)
- GI50 (RXF 393): 24.3 µM (inactive)
- GI50 (CAKI-1): 95.1 µM (inactive)
- GI50 (Malme-3M): 72.6 µM (inactive)
- GI50 (Hs-578T): 35.6 µM (inactive)
- GI50 (PC-3): 30.7 µM (inactive)
- GI50 (EKVX): 33.2 µM (inactive)
- GI50 (KM12): 20.2 µM (inactive)
- GI50 (SK-MEL-5): 26.5 µM (inactive)
- GI50 (UO-31): 29.4 µM (inactive)
- GI50 (SN12C): 24.4 µM (inactive)
- GI50 (SF-268): 23.2 µM (inactive)
- GI50 (HT-29): 20 µM (inactive)
- GI50 (UACC-62): 30.1 µM (inactive)
- GI50 (NCI-H460): 21.6 µM (inactive)
- GI50 (OVCAR-5): 18.8 µM (inactive)
- GI50 (IGROV-1): 31 µM (inactive)
- GI50 (A498): 92.7 µM (inactive)
- GI50 (ACHN): 39.5 µM (inactive)
- GI50 (SNB-75): 25.2 µM (inactive)
- GI50 (MDA-MB-231): 17.2 µM (inactive)
- GI50 (NCI/ADR-RES): 21.8 µM (inactive)
- GI50 (K562): 22.7 µM (inactive)
- GI50 (RPMI-8226): 26.4 µM (inactive)
- GI50 (NCI-H23): 22.9 µM (inactive)
- GI50 (MDA-N): 19.8 µM (inactive)
- GI50 (CCRF-CEM): 21 µM (inactive)
